For test [1], the target named is Human BTK enzyme, wild-type (Homo sapiens (Human), UniProt Q06187). As to the kind of experiment: BTK Screening: Btk kinase activity, electrophoretic mobility shift assay (MSA). Type of test: biochemical. As to conditions: 0.5 nM BTK enzyme, 50 μM ATP, 15 minutes pre-incubation, 3 hours at 25° C. How it is done:
Btk kinase activity was measured in vitro using an electrophoretic mobility shift assay (MSA). The ability of Btk to phosphorylate a fluorescent peptide substrate (FAM-GEEPLYWSFPAKKK-NH2) was measured. The kinase reactions were assembled in a total volume of 25 μL per well in 384 well plates. The following was added to each well: compound buffer (or control); enzyme buffer; and substrate buffer, as further described below.
Specifically the following was added: (1) compound buffer or control: 5μL of 5× compound buffer [(5× compound buffer comprised of: 1× Master Buffer, X μM test compound in 5% dimethyl sulfoxide; (2× Master Buffer comprised of 200 mM HEPES, pH7.5, 0.2% BSA, and 0.02% Triton X-100)]; and (2) enzyme buffer: 10 μL of 2.5× enzyme buffer (1× Master Buffer, 12.5 mM MgCl2, 2.5 mM DTT, 25 μM sodium orthovanadate, 25 μM beta-glycerophosphate, and 1.25 nM BTK enzyme). Human BTK enzyme Nanosyn-293HEK, wild-type, available from Nanosyn, Santa Clara, CA). Enzyme and compound were pre-incubated for 15 minutes. Additionally, the following was added: (3) substrate buffer: 10 μL of 2.5× substrate buffer (1× Master Buffer, […], and 2.5 μM of the peptide substrate FAM). Each plate was incubated at 25° C. for 3 hours. The reaction was terminated by adding to each well: 45 μL of 1.55× stop buffer (1× Master Buffer and 31 mM EDTA). The final reaction mixture was as follows: 100 mM HEPES, pH7.5; 0.1% BSA; 0.01% Triton X-100; 1 mM DTT; 5 mM MgCl2; 10 μM sodium orthovanadate; 10 μM beta-glycerophosphate; 50 μM ATP; 1% dimethyl sulfoxide (from compound); 1μM fluorescent peptide substrate and 0.5 nM BTK- enzyme. The terminated reactions were analyzed using a 12 channel LABCHIP® 3000 microfluidic detection instrument (available from Caliper Life Sciences, Waltham, MA). […] As substrate and product peptides were separated, two peaks of fluorescence were observed. Change in the relative fluorescence intensity of the substrate and product peaks was the parameter measured, reflecting enzyme activity. In the presence of an active compound, the ratio between product and substrate was altered. The signal of the product decreased, while the signal of the substrate increased. Capillary electrophoregrams (RDA acquisition files) were analyzed using HTS Well Analyzer software (available from Caliper Life Sciences, Waltham, MA).
Activity in each sample was determined as the product to sum ratio (PSR): P/(S+P), where P was the peak height of the product peptide and S was the peak height of the substrate peptide. For each compound, enzyme activity was measured at various concentrations (12 concentrations of compound spaced by 3× dilution intervals). Negative control samples (0% inhibition in the absence of an active compound) and positive control samples (100% inhibition, in the presence of 20 mM EDTA) were assembled in replicates of four and were used to calculate % inhibition values for each active compound at each concentration. Percent inhibition (Pinh) was determined using following equation: Pinh=(PSR0%−PSRinh)/(PSR0%−PSR100%)*100, where PSRinh was the product sum ratio in the presence of inhibitor, PSR0% was the average product sum ratio in the absence of active compound and PSR100% was the average product sum ratio in 100%-inhibition control samples.
The IC50 values of active compounds were determined by 4 parameter sigmoidal dose response model fitting of the inhibition curves (Pinh versus inhibitor concentration) using XLfit® 4 software (IDBS, Boston, MA). The IC50 values are reported in Table 2 in the BTK IC50 (nM) column.

The target in test [2] is His-tagged Cereblon/DDB1 complex (Homo sapiens (Human), UniProt Q96SW2). As to the kind of experiment: Cereblon Binding Assay (AlphaLISA Human Cereblon Binding Kit, competition). To be noted: 10 μM top dose, biotin-labeled ligand competition; read-out: CRBN IC50. How it is done:
Cereblon binding was measured in vitro using an AlphaLISA® Human Cereblon Binding Kit (PerkinElmer, Waltham, MA) according to the manufacturer's protocol (“Alpha” refers to Amplified Luminescent Proximity Homogeneous Assay). In this assay, donor beads and acceptor beads come into proximity through ligand binding to CRBN protein. Excitation of the donor beads provokes the release of singlet oxygen that triggers a cascade of energy transfer reactions to the acceptor beads, resulting in a sharp peak in light emission at 615 nm.
Specifically, nickel chelate acceptor beads (PerkinElmer AL108M) were used to capture a 6XHIS-tagged CRBN protein, and streptavidin-coated donor beads (PerkinElmer 6760002) were used to capture 50 nM biotinylated ligand. Each well included the following: sample or control; HIS-tagged CRBN protein; biotinylated ligand; nickel chelate acceptor beads; and streptavidin donor beads.
Competition Assay: Test compounds in 100% dimethyl sulfoxide were plated onto white, low volume 384 well plates (PerkinElmer Proxiplate 384 plus # 6008289) using an Labcyte Echo acoustic dispenser, in an 11-point dose curve and 3-fold dilution scheme. […] Plates were incubated for 30 minutes at room temperature.
Detection: 10 μL detection reagents were added in low light conditions containing nickel chelate acceptor beads and streptavidin donor beads (Perkin Elmer 6760002), resulting in a final concentration 20 ng/ml. Plates were incubated 1 hour and read on a PerkinElmerTM Envision™ plate reader (680 nm excitation and […] settings). The IC50 of each compound was determined by calculating percent inhibition from no drug and no protein controls, and the Ki of each compound was calculated using the Cheng-Prusoff transformation. From the IC50 values were determined. The IC50 values are reported in Table 2 in the CRBN IC50 (nM) column.

For test [3], the target named is BTK protein in human whole blood (Homo sapiens (Human), UniProt Q06187). As to the kind of experiment: Btk protein in human whole blood MSD ELISA based assay (Btk degradation). It counts as cell-based. To be noted: human whole blood from healthy donors, 6 hours at 37° C., half maximal degradation concentration; read-out: hWB BTK DC50. How it is done:
Btk protein degradation was tested using an Meso Scale Discovery-ELISA system (MSD-ELISA): (1) Test compounds were added to human whole blood; (2) human whole blood cells treated with test compounds were lysed; (3) lysed cells were treated with capture antibody, an antibody to Btk; (4) lysed cells were treated with […] to Btk; and (5) lysed cells were treated with anti-mouse antibody (tagged).
Specifically, about 80 μl of fresh human whole blood from healthy donors was transferred into each well of a 96-well V-bottom plate (Costar, Cat No.3894). Using a TECANTM D300e Digital Dispenser (Tecan)), 1:4 serially diluted compounds [(8 pt assay) in DMSO solution (final 0.2%) starting at 3 μM top concentration], were added in duplicate. Thereafter, plates were placed in a 37° C. incubator and incubated for 6 hours.
At the end of incubation, 80 μl of 2× CST lysis buffer (Cell Signaling Technology, Cat No. 9803), prepared from a 10× stock solution, was added per well to lyse the blood. Plates were then sealed with a plate sealer and the samples were frozen overnight at −80° C.
Total amount of BTK protein remaining in the blood samples after compound treatment was measured using MSD-ELISA. After thawing the frozen plates, blood lysates were mixed thoroughly and transferred to small spot high-bind MSD plates (Meso Scale Discovery, Cat No. L45XB-3) and coated with capturing antibody, rabbit anti-human BTK (D3H5) (Cell Signaling Technology, Cat No. 8547CF). Thereafter, primary detection antibody, mouse anti-human BTK monoclonal antibody, (BD Biosciences, Cat No. 611117) and secondary detection antibody, anti-mouse SULFO-TAG (Meso Scale Discovery, Cat No. R32AC-1) were added. The assay plates were read on an MSD S600 plate reader by the addition of 2× MSD read buffer (Meso Scale Discovery, R92TC-1). All reagent transfers, including blood lysis, was conducted using a Biomed i7 liquid handler. From the dose response curves, DC50 values were calculated by averaging data from duplicate experiments. and Curve fitting was done by non-linear regression using GraphPad Prism. The DC50 values are reported in Table 2 in the hWB BTK DC50 (nM) column The Dmax values represent the maximum amount of BTK degradation observed upon compound treatment compared to DMSO only treated samples. The dMax (%) values are reported in Table 2 in the hWB BTK dMax (%) column.
A general note: In an ELISA, binding on a coated surface is turned into a signal by an enzyme label.

The IC50 is the concentration that inhibits the measured activity by half. For orientation: DC50 means the concentration giving 50% degradation.

As to `COC[C@H]1CN(CCc2ccc(N3CCC(=O)NC3=O)cc2)CCN1c1ccc(Nc2cc(-c3ccc([C@@H](C)NC(=O)c4nc(C(C)(C)C)no4)c(C)c3)ncn2)nc1` [Example 15, 3-tert-butyl-N-[(1R)-1-{4-[6-({5-[(2R)-4-{2-[4-(2,4-dioxo-1,3-diazinan-1-yl)phenyl]ethyl}-2-(methoxymethyl)piperazin-1-yl]pyridin-2-yl}amino)pyrimidin-4-yl]-2-methylphenyl}ethyl]-1,2,4-oxadiazole-5-carboxamide], the values for the IC50 in test [1] and in test [2] were 0.0986 nM and no less than 10000 nM, respectively. In addition, in test [3], the half-maximal degradation concentration (DC50) amounted to 4.21 nM.

`C[C@@H](NC(=O)c1nc(C(C)(C)C)no1)c1ccc(-c2cc(Nc3ccc(N4CCN(CCc5ccc(N6CCC(=O)NC6=O)cc5)C[C@@H]4C)cn3)ncn2)cc1C(F)(F)F` [Example 16, 3-tert-butyl-N-[(1R)-1-{4-[6-({5-[(2S)-4-{2-[4-(2,4-dioxo-1,3-diazinan-1-yl)phenyl]ethyl}-2-methylpiperazin-1-yl]pyridin-2-yl}amino)pyrimidin-4-yl]-2-(trifluoromethyl)phenyl}ethyl]-1,2,4-oxadiazole-5-carboxamide]: the values for the IC50 in test [1] and in test [2] were 0.438 nM and no less than 10000 nM, respectively. Besides, the DC50 in test [3] is 14.2 nM.

With `C[C@@H](NC(=O)c1nc(C(C)(C)C)no1)c1ccc(-c2cc(Nc3ccc(N4CCN(CCc5ccc(N6CCC(=O)NC6=O)cc5)C[C@@H]4C)cn3)ncn2)cc1F` [Example 17, 3-tert-butyl-N-[(1R)-1-{4-[6-({5-[(2S)-4-{2-[4-(2,4-dioxo-1,3-diazinan-1-yl)phenyl]ethyl}-2-methylpiperazin-1-yl]pyridin-2-yl}amino)pyrimidin-4-yl]-2-fluorophenyl}ethyl]-1,2,4-oxadiazole-5-carboxamide], the concentration for half-maximal inhibition (IC50) turned out to be 0.103 nM in test [1] and 3870 nM in test [2]. Also, in test [3], the DC50 was 4.13 nM.

Values taken from patent US20240109877A1, “PYRIMIDINES FOR DEGRADING BRUTON'S TYROSINE KINASE” (AbbVie Inc., priority 2022, published 2024).
